Results from ChEMBL document CHEMBL4507284, “Data for DCP probe BI-1230” (2021).

What was measured:
Conditions in all cases: Compound concentration 10.0 uM
[1] = molecular target: Beta-secretase 1 (Homo sapiens) (UniProt P56817); assay: BACE-1 (h) (β-secretase) Eurofins-Cerep enzyme and uptake assay
Tryptase (Homo sapiens) = Tryptase (Homo sapiens) (UniProt Q9BZJ3+Q15661+Q9NRR2); assay: Tryptase (h) Eurofins-Cerep enzyme and uptake assay; format: protein assay
[2] = molecular target: Protease (Human immunodeficiency virus 1) (UniProt Q9YQ12); assay: HIV-1 protease Eurofins-Cerep enzyme and uptake assay
Sequence of Protease (Human immunodeficiency virus 1) (Q9YQ12 as listed by the source): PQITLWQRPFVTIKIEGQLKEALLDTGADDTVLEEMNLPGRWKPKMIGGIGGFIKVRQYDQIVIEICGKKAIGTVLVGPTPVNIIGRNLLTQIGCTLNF

Caspase-3 (Homo sapiens) = Caspase-3 (Homo sapiens) (UniProt P42574); assay: Caspase-3 (h) Eurofins-Cerep enzyme and uptake assay
Sequence of Caspase-3 (Homo sapiens) (P42574 29-175 limits assumed): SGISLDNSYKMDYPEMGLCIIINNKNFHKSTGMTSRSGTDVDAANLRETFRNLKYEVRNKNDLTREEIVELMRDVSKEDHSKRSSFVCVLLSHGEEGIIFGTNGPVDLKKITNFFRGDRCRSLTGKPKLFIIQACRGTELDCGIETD
Sequence of Caspase-3 (Homo sapiens) (P42574 176-277 limits assumed): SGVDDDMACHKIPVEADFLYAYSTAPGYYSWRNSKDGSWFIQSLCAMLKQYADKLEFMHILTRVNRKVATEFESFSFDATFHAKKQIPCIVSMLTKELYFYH

Caspase-6 (Homo sapiens) = Caspase-6 (Homo sapiens) (UniProt P55212); assay: Caspase-6 (h) Eurofins-Cerep enzyme and uptake assay
Sequence of Caspase-6 (Homo sapiens) (P55212 24-179 limits assumed): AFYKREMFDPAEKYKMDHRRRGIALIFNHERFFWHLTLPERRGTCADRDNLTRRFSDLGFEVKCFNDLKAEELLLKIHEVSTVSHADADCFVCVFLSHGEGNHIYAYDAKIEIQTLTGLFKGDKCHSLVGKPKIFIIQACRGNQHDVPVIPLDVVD
Sequence of Caspase-6 (Homo sapiens) (P55212 194-293 limits assumed): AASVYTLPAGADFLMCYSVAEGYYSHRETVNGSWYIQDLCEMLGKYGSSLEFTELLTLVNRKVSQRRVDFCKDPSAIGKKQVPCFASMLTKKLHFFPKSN

[3] = molecular target: Interstitial collagenase (Homo sapiens) (UniProt P03956); assay: MMP-1 (h) Eurofins-Cerep enzyme and uptake assay
Sequence of Interstitial collagenase (Homo sapiens) (P03956 whole entry): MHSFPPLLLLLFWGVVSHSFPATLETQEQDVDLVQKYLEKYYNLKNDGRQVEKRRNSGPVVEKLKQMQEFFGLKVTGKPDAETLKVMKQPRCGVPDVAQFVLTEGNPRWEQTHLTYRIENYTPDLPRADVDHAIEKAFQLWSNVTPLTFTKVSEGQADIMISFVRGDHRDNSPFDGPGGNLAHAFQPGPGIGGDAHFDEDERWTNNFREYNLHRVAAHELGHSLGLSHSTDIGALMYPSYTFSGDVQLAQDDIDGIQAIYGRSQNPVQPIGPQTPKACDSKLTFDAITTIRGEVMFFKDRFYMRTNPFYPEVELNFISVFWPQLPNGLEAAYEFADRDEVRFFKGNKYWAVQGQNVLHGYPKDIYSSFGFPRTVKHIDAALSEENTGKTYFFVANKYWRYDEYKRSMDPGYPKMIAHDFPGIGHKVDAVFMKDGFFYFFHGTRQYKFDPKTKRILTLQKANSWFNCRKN

[4] = molecular target: Kappa-type opioid receptor (Homo sapiens) (UniProt P41145)
Sequence of Kappa-type opioid receptor (Homo sapiens) (P41145 whole entry): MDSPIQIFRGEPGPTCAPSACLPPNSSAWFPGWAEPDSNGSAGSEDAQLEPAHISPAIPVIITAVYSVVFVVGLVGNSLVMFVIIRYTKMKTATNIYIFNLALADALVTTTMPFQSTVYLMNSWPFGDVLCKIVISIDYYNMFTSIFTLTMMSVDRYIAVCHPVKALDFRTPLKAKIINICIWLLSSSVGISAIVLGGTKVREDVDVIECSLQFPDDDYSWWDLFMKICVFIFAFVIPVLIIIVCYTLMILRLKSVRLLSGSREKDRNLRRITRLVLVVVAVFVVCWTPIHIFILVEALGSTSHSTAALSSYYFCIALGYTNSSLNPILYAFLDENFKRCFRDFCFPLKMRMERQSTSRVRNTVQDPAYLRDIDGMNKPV

[5] = molecular target: Sodium-dependent dopamine transporter (Homo sapiens) (UniProt Q01959)
Sequence of Sodium-dependent dopamine transporter (Homo sapiens) (Q01959 whole entry): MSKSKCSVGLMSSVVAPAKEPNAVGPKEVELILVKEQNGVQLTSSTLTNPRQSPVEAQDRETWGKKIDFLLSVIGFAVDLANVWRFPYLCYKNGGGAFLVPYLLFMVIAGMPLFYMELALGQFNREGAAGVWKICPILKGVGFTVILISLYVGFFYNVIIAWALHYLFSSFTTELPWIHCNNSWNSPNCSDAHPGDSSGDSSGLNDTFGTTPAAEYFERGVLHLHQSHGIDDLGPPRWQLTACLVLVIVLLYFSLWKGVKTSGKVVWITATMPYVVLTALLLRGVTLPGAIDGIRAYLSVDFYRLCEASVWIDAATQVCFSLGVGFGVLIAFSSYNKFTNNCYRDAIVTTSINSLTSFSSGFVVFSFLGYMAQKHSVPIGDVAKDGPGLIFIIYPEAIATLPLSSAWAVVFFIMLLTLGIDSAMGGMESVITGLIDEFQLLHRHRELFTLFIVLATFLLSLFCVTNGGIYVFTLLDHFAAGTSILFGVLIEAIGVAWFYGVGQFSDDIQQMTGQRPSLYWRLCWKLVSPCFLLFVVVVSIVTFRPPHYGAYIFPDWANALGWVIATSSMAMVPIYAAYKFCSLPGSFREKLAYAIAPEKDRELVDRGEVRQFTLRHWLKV

[6] = molecular target: Cathepsin S (Homo sapiens) (UniProt P25774); assay: Cathepsin S (h) Eurofins-Cerep enzyme and uptake assay
Sequence of Cathepsin S (Homo sapiens) (P25774 115-331 limits assumed): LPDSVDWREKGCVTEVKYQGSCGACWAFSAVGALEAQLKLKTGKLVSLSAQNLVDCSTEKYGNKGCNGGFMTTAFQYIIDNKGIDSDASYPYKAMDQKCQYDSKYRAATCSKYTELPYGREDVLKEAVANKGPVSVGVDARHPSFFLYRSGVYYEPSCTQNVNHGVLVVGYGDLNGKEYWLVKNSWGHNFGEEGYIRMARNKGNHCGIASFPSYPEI

[7] = molecular target: 5-hydroxytryptamine receptor 7 (Homo sapiens) (UniProt P34969)
Sequence of 5-hydroxytryptamine receptor 7 (Homo sapiens) (P34969 whole entry): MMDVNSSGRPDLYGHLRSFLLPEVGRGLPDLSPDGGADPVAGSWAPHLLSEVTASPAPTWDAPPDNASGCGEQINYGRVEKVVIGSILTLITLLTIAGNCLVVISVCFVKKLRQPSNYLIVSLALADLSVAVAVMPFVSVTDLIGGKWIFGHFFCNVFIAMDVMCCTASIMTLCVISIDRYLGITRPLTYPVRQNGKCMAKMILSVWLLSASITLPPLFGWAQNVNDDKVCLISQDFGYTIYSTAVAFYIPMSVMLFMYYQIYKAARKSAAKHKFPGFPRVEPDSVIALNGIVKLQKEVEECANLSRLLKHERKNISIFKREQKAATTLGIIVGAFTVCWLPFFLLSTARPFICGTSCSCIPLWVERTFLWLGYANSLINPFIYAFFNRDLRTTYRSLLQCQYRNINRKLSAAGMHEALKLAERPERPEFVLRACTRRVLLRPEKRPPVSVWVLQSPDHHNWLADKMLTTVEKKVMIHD

[8] = molecular target: 5-hydroxytryptamine receptor 6 (Homo sapiens) (UniProt P50406)
Sequence of 5-hydroxytryptamine receptor 6 (Homo sapiens) (P50406 whole entry): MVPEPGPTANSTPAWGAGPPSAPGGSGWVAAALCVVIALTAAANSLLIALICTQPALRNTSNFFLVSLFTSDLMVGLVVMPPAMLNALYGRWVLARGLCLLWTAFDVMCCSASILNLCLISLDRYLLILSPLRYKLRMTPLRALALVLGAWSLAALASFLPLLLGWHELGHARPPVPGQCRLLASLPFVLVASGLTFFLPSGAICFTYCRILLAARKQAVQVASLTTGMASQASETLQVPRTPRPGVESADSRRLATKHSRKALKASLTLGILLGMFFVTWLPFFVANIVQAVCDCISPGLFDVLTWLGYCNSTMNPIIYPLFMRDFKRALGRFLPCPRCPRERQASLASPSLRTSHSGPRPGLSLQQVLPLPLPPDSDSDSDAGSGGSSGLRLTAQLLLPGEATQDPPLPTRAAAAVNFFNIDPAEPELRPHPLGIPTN

[9] = molecular target: Alpha-1B adrenergic receptor (Homo sapiens) (UniProt P35368)
Sequence of Alpha-1B adrenergic receptor (Homo sapiens) (P35368 whole entry): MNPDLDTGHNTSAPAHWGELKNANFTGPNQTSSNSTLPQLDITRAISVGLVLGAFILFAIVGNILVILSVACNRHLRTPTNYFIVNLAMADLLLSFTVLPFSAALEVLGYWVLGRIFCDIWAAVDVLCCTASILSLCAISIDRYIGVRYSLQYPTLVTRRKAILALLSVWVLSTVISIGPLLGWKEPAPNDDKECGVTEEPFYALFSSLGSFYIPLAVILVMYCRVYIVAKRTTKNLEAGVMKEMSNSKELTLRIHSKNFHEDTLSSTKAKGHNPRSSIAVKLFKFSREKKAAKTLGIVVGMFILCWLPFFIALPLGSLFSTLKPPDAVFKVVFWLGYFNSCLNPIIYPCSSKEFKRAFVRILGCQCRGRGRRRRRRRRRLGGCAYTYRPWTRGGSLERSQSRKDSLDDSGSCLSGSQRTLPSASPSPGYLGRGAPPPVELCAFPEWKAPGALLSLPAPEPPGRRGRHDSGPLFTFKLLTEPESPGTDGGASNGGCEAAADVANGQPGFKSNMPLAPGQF

Sequence of Beta-secretase 1 (Homo sapiens) (P56817 whole entry): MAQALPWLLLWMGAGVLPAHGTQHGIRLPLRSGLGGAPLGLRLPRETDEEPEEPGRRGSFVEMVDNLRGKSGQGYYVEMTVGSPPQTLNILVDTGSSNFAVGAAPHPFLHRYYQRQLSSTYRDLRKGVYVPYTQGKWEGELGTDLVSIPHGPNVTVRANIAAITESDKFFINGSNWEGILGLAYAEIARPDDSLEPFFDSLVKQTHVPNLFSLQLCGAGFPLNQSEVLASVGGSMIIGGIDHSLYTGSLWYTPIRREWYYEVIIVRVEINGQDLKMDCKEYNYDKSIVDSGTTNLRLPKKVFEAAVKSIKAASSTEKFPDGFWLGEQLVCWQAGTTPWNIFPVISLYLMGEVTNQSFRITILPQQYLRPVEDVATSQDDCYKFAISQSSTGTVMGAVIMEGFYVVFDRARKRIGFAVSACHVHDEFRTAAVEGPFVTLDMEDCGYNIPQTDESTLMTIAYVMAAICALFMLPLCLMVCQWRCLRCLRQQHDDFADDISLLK

Row | Compound | % Inhibition of Control Values [1] | % Inhibition of Control Values (Tryptase (Homo sapiens)) | % Inhibition of Control Values [2] | % Inhibition of Control Values (Caspase-3 (Homo sapiens)) | % Inhibition of Control Values (Caspase-6 (Homo sapiens)) | % Inhibition of Control Values [3] | inhibition [4] | inhibition [5] | % Inhibition of Control Values [6] | inhibition [7] | inhibition [8] | inhibition [9]
1 | COc1ccc2c(O[C@@H]3C[C@H]4C(=O)N[C@]5(C(=O)O)CC5/C=C\CCCCC[C@H](NC(=O)OC5CCCC5)C(=O)N4C3)cc(-c3csc(NC(=O)C(C)C)n3)nc2c1C (some centres not stated) [BI 1230] | 90.6% | 6.9% | 48.2% | 23.8% | 10.3% | 23.1% | 18.1% | 17.4% | 27% |  |  | 
2 | O=C(N[C@H]1CCCCC/C=C\C2C[C@@]2(C(=O)O)NC(=O)[C@@H]2C[C@@H](Oc3ccncc3)CN2C1=O)OC1CCCC1 (some centres not stated) [BI 1675] |  |  |  |  |  |  |  |  |  | -3.24% | -7.71% | -7.2%
